Laboratory results: publication PMC3469269 (ACS medicinal chemistry letters, 2012)

Legend:
[1] = test system: DAT; conditions: ref Vaughan et al., unpublished observations; cited from earlier work
[2] = test system: DAT; conditions: cited from earlier work
[3] = target: hDAT (Homo sapiens, UniProt Q01959); assay: Inhibition of [3H]-WIN-35,428 binding to hDAT in N2A neuroblastoma cells
Sequence of hDAT (Q01959 whole entry): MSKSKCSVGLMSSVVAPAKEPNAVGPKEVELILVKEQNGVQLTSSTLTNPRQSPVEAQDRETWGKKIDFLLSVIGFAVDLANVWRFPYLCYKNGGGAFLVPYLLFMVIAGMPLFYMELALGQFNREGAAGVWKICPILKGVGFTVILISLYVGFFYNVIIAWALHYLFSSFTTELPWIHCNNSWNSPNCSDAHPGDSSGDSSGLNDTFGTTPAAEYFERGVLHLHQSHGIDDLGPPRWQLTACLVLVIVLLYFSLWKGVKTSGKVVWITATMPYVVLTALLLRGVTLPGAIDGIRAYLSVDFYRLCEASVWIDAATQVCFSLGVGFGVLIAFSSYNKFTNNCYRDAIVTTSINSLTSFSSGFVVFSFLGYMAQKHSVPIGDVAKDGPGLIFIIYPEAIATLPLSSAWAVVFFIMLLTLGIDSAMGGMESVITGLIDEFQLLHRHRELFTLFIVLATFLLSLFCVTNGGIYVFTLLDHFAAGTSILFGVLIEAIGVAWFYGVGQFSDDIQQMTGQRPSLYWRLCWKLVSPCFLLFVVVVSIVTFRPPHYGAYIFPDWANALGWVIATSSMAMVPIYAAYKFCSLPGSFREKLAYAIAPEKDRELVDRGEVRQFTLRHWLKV

**Q.** For `COC(=O)C1C(c2ccc(N=[N+]=[N-])c(I)c2)CC2CCC1N2C` (stereo not shown) [compound 5, 3-(4′-azido-3′-iodo-phenyl)-8-methyl-8-aza-bicyclo-[3.2.1]octane-2-carboxylic acid methyl ester], which “labeling of the DAT in immunoprecipitation and proteolysis experiments” value [1] is on record?
**A.** Its value is “fails to label the DAT”.

**Q.** And the “binding to the DAT” value [2]?
**A.** Its value is “high affinity, wash-resistant binding”.

**Q.** Which “fold increase in hDAT affinity” value ([3]; relative to (±)-14 (aniline replaced by azide)) does the source give for `COC(=O)[C@H](c1ccc(N=[N+]=[N-])c(I)c1)[C@H]1CCCCN1` (racemic) [(±)-6, (±)-threo-4-Azido-3-iodomethylphenidate] here?
**A.** The value was ~ 2.3 fold.

**Q.** With `COC(=O)[C@H](c1ccc(N)c(I)c1)[C@H]1CCCCN1` (racemic) [(±)-14] as the molecule, how does the “fold decrease in binding affinity for hDAT” value ([3]; relative to aniline (±)-13 (addition of 3-I)) read?
**A.** The value was ~ 1.4 fold.
